Results taken from patent US20230051589A1, “COMPOUNDS AND COMPOSITIONS FOR TREATING CONDITIONS ASSOCIATED WITH NLRP ACTIVITY” (Novartis AG, priority 2018, published 2023).
pIC50: −log10 of the molar value.

System: IL-1β production in PMA-differentiated THP-1 cells
Test: IL-1β production in PMA-differentiated THP-1 cells stimulated with gramicidin (hTHP-1 assay, 2% fetal bovine serum; Procedures 1-3)
Type: cell-based, human
Settings: Homo sapiens, THP-1, Table B1; hTHP-1 assay containing 2% fetal bovine serum, gramicidin stimulation, IL-1β readout; read-out: hTHP-1 IC50 (average)
Outline: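 PMA-primed THP-1 cells (20 ng/ml PMA, 16-18 h) in RPMI with 2% FBS were pre-incubated with compounds for 1 h, from 100 μM downward in 3-fold steps (0.37% DMSO final), then stimulated with 5 μM gramicidin for 2 h. IL-1β in the supernatant was quantified by HTRF.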

`CCc1ccc2cn(C)nc2c1NC(=O)N=S(N)(=O)c1ncc(C(C)(C)O)s1` (single isomer, unassigned) [Example 329, (S) or (R)-N′-((6-ethyl-2-methyl-2H-indazol-7-yl)-carbamoyl)-5-(2-hydroxy-propan-2-yl)thiazole-2-sulfonimidamide] was tested, and the pIC50 was < 4.52.

Same assay, conditions: Homo sapiens, THP-1, Table B3; hTHP-1 assay containing 2% fetal bovine serum, gramicidin stimulation, IL-1β readout; read-out: hTHP-1 IC50

Compared with `NS(=O)(=NC(=O)Nc1c2c(cc3c1CCC3)CCC2)c1cnc(C(O)(COCCOCc2ccccc2)COCCOCc2ccccc2)s1` (stereo not drawn) [Example 780, N′-((1,2,3,5,6,7-hexahydro-s-indacen-4-yl)carbamoyl)-2-(7-hydroxy-1,13-diphenyl-2,5,9,12-tetraoxatridecan-7-yl)thiazole-5-sulfonimidamide], `C[C@@](O)(CO)c1ncc(S(N)(=O)=NC(=O)Nc2c3c(cc4c2C(=O)CC4)CCC3)s1` (stereo partly drawn) [Example 743, 2-((R)-1,2-dihydroxypropan-2-yl)-N′-((3-oxo-1,2,3,5,6,7-hexahydro-s-indacen-4-yl)carbamoyl)thiazole-5-sulfonimidamide] is higher in pIC50: 5.30 to 6.00 for the first, 6.00 to 6.70 for the second. The second is the more potent here.

Compound `CCn1ccc(S(N)(=O)=NC(=O)Nc2c3c(cc4c2CC4)CCC3)n1` (stereo not drawn) [Example 737, 1-Ethyl-N′-((2,4,5,6-tetrahydro-1H-cyclobuta[f]inden-3-yl)carbamoyl)-1H-pyrazole-3-sulfonimidamide] has a pIC50 of 6.00 to 6.70.

Same assay, conditions: Homo sapiens, THP-1, hTHP-1 assay containing 2% fetal bovine serum, Table B2, class symbols; read-out: IC50

First: N[S@@](=O)(=NC(=O)Nc1c2c(cc3c1CCC3)CCC2)c1ccc([C@@H]2CCCN2)s1 [Compound 921c]
Second: N[S@](=O)(=NC(=O)Nc1c2c(cc3c1CCC3)CCC2)c1ccc([C@H]2CCCN2)s1 [Compound 921b]
The pIC50 of the first is lower: 5.30 to 6.00 for the first, 6.00 to 6.70 for the second.

Compared with `C[C@](O)(CO)c1ncc([S@](N)(=O)=NC(=O)Nc2c3c(cc4c2CCC4)CCC3)s1` [Example 713, (R)-2-((S)-1,2-dihydroxypropan-2-yl)-N-((1,2,3,5,6,7-hexahydro-s-indacen-4-yl)carbamoyl)thiazole-5-sulfonimidamide], `CN(C)Cc1ccc([S@](N)(=O)=NC(=O)Nc2c3c(cc4c2CCC4)CCC3)s1` [Compound 889a] is lower in pIC50: 7.40 to 8.10 for the first, 4.52 to 5.30 for the second. The first is the more potent here.

`CNCc1ccc(S(N)(=O)=NC(=O)Nc2c3c(cc4c2CC4)CCC3)cc1` (stereo not drawn) [Example 448, 4-((Methylamino)methyl)-N′-((2,4,5,6-tetrahydro-1H-cyclobuta[f]inden-3-yl)carbamoyl)benzenesulfonimidamide] and `CCC(C)NCc1ccc([S@](N)(=O)=NC(=O)Nc2c3c(cc4c2CCC4)CCC3)cc1` (stereo partly drawn) [Example 702, (R)-4-((sec-butylamino)methyl)-N′-((1,2,3,5,6,7-hexahydro-s-indacen-4-yl)carbamoyl)-benzenesulfonimidamide] fall in the same range of pIC50: 5.30 to 6.00 for the first, 5.30 to 6.00 for the second.

`CNCc1csc(S(N)(=O)=NC(=O)Nc2c3c(cc4c2CCC4)CCC3)c1` (stereo not drawn) [compound 672, N′-((1,2,3,5,6,7-hexahydro-s-indacen-4-yl)carbamoyl)-4-((methylamino)methyl)thiophene-2-sulfonimidamide] gave a pIC50 of 6.70 to 7.40.

Same assay, conditions: Homo sapiens, THP-1, hTHP-1 assay containing 2% fetal bovine serum, Table B2, given as bound; read-out: IC50

`CC(C)(O)c1cnc(S(N)(=O)=NC(=O)Nc2c3c(cc4c2CCC4=O)CCC3)s1` (single isomer, unassigned) [Example 588, (S) or (R)-5-(2-hydroxypropan-2-yl)-N′-((1-oxo-1,2,3,5,6,7-hexahydro-s-indacen-4-yl)carbamoyl) thiazole-2-sulfonimidamide] and `CN1CCC[C@H](c2ccc([S@@](N)(=O)=NC(=O)Nc3c4c(cc5c3CC5)CCC4)c(F)c2)C1` [Compound 911c] cannot be ordered by pIC50: < 4.52 for the first, < 4.52 for the second.

Same assay, conditions: Table B1; hTHP-1 assay containing 2% fetal bovine serum, gramicidin stimulation, IL-1β readout; read-out: hTHP-1 IC50 (average)

First: CN(C)Cc1cc(F)c(S(N)(=O)=NC(=O)Nc2c3c(cc4c2CCC4)CCC3)s1 (single isomer, unassigned) [Example 381, (R) or (S)-5-((dimethyl-amino)methyl)-3-fluoro-N′-((1,2,3,5,6,7-hexa-hydro-s-indacen-4-yl)-carbamoyl)thiophene-2-sulfonimidamide]
Second: CC(c1ccc(S(N)(=O)=NC(=O)Nc2c3c(cc4c2CCC4)CCC3)cc1)N(C)C (single isomer, unassigned) [Example 372, (R) or (S)-4-(1-(dimethyl-amino)ethyl)-N′-((1,2,3,5,6,7-hexahydro-s-indacen-4-yl)carbamoyl)-benzenesulfonimidamide]
The pIC50 of the first is higher: 7.40 to 8.10 for the first, 6.70 to 7.40 for the second. The first is the more potent here.

`CC(c1ccc(S(N)(=O)=NC(=O)Nc2c3c(cc4c2CCC4)CCC3)cc1)N(C)C` (single isomer, unassigned) [Example 377, (R, R) or (R, S) or (S, S) or (S, R)-4-(1-(dimethyl-amino)ethyl)-N′-((1,2,3,5,6,7-hexahydro-s-indacen-4-yl)carbamoyl)-benzenesulfonimidamide] and `CC1CCc2c1cc1c(c2NC(=O)N=S(N)(=O)c2cnc(C(C)(C)O)s2)CCC1` (stereo not drawn) [Example 291, 2-(2-Hydroxypropan-2-yl)-N′-((1-methyl-1,2,3,5,6,7-hexahydro-s-indacen-4-yl)-carbamoyl)thiazole-5-sulfon-imidamide] fall in the same range of pIC50: 6.70 to 7.40 for the first, 6.70 to 7.40 for the second.

Same assay, conditions: Table B3; hTHP-1 assay containing 2% fetal bovine serum, gramicidin stimulation, IL-1β readout; read-out: hTHP-1 IC50

`NS(=O)(=NC(=O)Nc1c2c(cc3c1CC3)CCC2)c1sc(CN2CCC2)cc1F` (single isomer, unassigned) [Example 844, (S) or (R)-5-(azetidin-1-ylmethyl)-3-fluoro-N′-((2,4,5,6-tetrahydro-1H-cyclobuta[f]inden-3-yl)carbamoyl)thiophene-2-sulfonimidamide] and `CN1CCCC(c2ccc(S(N)(=O)=NC(=O)Nc3c4c(cc5c3CC5)CCC4)c(F)c2)C1` (stereo not drawn) [Example 766, 2-Fluoro-4-(1-methylpiperidin-3-yl)-N′-((2,4,5,6-tetrahydro-1H-cyclobuta[f]inden-3-yl)carbamoyl)benzenesulfonimidamide] fall in the same range of pIC50: 5.30 to 6.00 for the first, 5.30 to 6.00 for the second.

Compared with `C[C@](O)(CO)c1ncc(S(N)(=O)=NC(=O)Nc2c3c(cc4c2CC4)CCC3)s1` (single isomer, unassigned) [Example 815, (R) or (S)-2-((S)-1,2-dihydroxypropan-2-yl)-N′-((2,4,5,6-tetrahydro-1H-cyclobuta[f]inden-3-yl)carbamoyl)thiazole-5-sulfonimidamide], `CN(C)Cc1ccc(S(N)(=O)=NC(=O)Nc2c3c(cc4c2CCC4)CCC3)s1` (single isomer, unassigned) [Example 804, (S) or (R)-5-((dimethvlamino)methyl)-N′-((1,2,3,5,6,7-hexahydro-s-indacen-4-yl)carbamoyl)thiophene-2-sulfonimidamide] is lower in pIC50: 7.40 to 8.10 for the first, 4.52 to 5.30 for the second. The first is the more potent here.

With `NS(=O)(=NC(=O)Nc1c2c(cc3c1CC3)CCC2)c1sc2c(c1F)CNCC2` (single isomer, unassigned) [Example 834, (S) or (R)-3-fluoro-N′-((2,4,5,6-tetrahydro-1H-cyclobuta[f]inden-3-yl)carbamoyl)-4,5,6,7-tetrahydrothieno[3,2-c]pyridine-2-sulfonimidamide] the pIC50 was 6.00 to 6.70.

Same assay, conditions: hTHP-1 assay containing 2% fetal bovine serum, Table B2, class symbols; read-out: IC50

First: CC(C)(O)c1cnc(S(N)(=O)=NC(=O)Nc2c3c(cc4c2C(=O)CC4)CCC3)s1 (single isomer, unassigned) [Example 573, (S) or (R)-5-(2-hydroxypiopan-2-yl)-N′-((3-oxo-1,2,3,5,6,7-hexahydro-s-indacen-4-yl)carbamoyl)thiazole-2-sulfonimidamide]
Second: CC(C)(O)c1cc(F)c(S(N)(=O)=NC(=O)Nc2c3c(cc4c2CCC4=O)CCC3)s1 (single isomer, unassigned) [Example 600, (R) or (S)-3-fluoro-5-(2-hydroxypropan-2-yl)-N′-((1-oxo-1,2,3,5,6,7-hexahydro-s-indacen-4-yl)carbamoyl)thiophene-2-sulfonimidamide]
The pIC50 of the first is lower: 4.52 to 5.30 for the first, 6.00 to 6.70 for the second.

First: CC(C)(O)c1nc(CO)c(S(N)(=O)=NC(=O)Nc2c3c(cc4c2CCC4)CCC3)s1 (single isomer, unassigned) [Example 543, (R) or (S)-N′-((1,2,3,5,6,7-hexahydro-s-indacen-4-yl)carbamoyl)-4-(hydroxymethyl)-2-(2-hydroxypropan-2-yl)thiazole-5-sulfonimidamide]
Second: NS(=O)(=NC(=O)Nc1c2c(cc3c1CCC3)CCC2)c1cc2c(s1)COCC2 (single isomer, unassigned) [Example 694, (S) or (R)-N′-((1,2,3,5,6,7-hexahydro-s-indacen-4-yl)carbamoyl)-4,7-dihydro-5H-thieno[2,3-c]pyran-2-sulfonimidamide]
The pIC50 of the first is higher: 7.40 to 8.10 for the first, 4.52 to 5.30 for the second. The first is the more potent here.

First: CC(C)c1cc2c(cc1NC(=O)N=S(N)(=O)c1cnc(C(C)(C)O)s1)CCC2 (single isomer, unassigned) [Example 526, (R) or (S)-2-(2-hydroxypropan-2-yl)-N′-((6-isopropyl-2,3-dihydro-1H-inden-5-yl)carbamoyl)thiazole-5-sulfonimidamide]
Second: NS(=O)(=NC(=O)Nc1c2c(cc3c1CC3)CCC2)c1cnn2c1OCCC2 (single isomer, unassigned) [Example 547, (S) or (R)-N′-((2,4,5,6-tetrahydro-1H-cyclobuta[f]inden-3-yl)carbamoyl)-6,7-dihydio-5H-pyrazolo[5,1-b][1,3]oxazine-3-sulfonimidamide]
The pIC50 of the first is higher: 6.00 to 6.70 for the first, 5.30 to 6.00 for the second. The first is the more potent here.

First: NS(=O)(=NC(=O)Nc1c2c(cc3c1CCC3)CCC2)c1ccc(C2CCCN2)cc1 (stereo not drawn) [Example 447, N′-((1,2,3,5,6,7-hexahydro-s-indacen-4-yl)carbamoyl)-4-(pyrrolidin-2-yl)benzenesulfonimidamide]
Second: CN(C)C(c1ccc(S(N)(=O)=NC(=O)Nc2c3c(cc4c2CCC4)CCC3)cc1)C1CC1 (single isomer, unassigned) [Example 659]
The pIC50 of the first is higher: 5.30 to 6.00 for the first, 4.52 to 5.30 for the second. The first is the more potent here.
